Here are results for six molecules from patent publication US8906908B2, “Hydroxybupropion analogues for treating drug dependence” (priority 2010, dated 2014).

Each structure is given as a SMILES string. Read-outs that look alike come from different tables or passages of the source.

For experiment [1], the system named is Male Institute of Cancer Research (ICR) mice. The experiment in a line: Hot-plate test, blockade of nicotine-induced antinociception. The experiment is classed as in vivo. To be noted: pretreatment 15 min before nicotine 2.5 mg/kg s.c., tested 5 min after nicotine; for ED50: Mus musculus, read-out: AD50 Hot-plate. The source says: (§1) Animals: Male Institute of Cancer Research (ICR) mice (weighing 20-25 g) obtained from Harlan (Indianapolis, Ind.) were used throughout the study. Animals were housed in an Association for Assessment and Accreditation of Laboratory Animal Care-approved facility, were placed in groups of six, and had free access to food and water. Studies were approved by the Institutional Animal Care and Use Committee of Virginia Commonwealth University.
Hot-Plate Test: Mice were placed into a 10-cm wide glass cylinder on a hot plate (Thermojust Apparatus) maintained at 55° C. for assessment of pain responses mediated at supraspinal levels. To minimize tissue damage, a maximum exposure to the hot plate 40 s was imposed. Measures of control latencies (time until the animal jumped or licked its paws; typically 8-12 s) were done twice for stimuli applied at least 10 min apart for each mouse. Antinociceptive responses after test drug administrations were determined and calculated as the % MPE, where % MPE=[(test latency in s−control latency in s)/(40 s−control latency in s)×100]. Groups of 8 to 12 animals were used for each drug condition. […] The animals were then tested 5 min after administration of a subcutaneous dose of 2.5 mg/kg nicotine.
Background: Thermal pain tests record how soon the animal reacts.

For experiment [2] the test system is unchanged. Put plainly: Body temperature, antagonism of nicotine-induced hypothermia. The experiment is classed as in vivo. To be noted: pretreatment 15 min before nicotine 2.5 mg/kg s.c., tested 30 min after nicotine. As for the experimental part: as §1
Body Temperature: Rectal temperature was measured by a thermistor probe (inserted 24 mm) and digital thermometer (YSI Inc., Yellow Springs, Ohio). Readings were taken just before and 30 min after subcutaneous injection of either saline or 2.5 mg/kg nicotine. The difference in rectal temperature before and after treatment was calculated for each mouse. The ambient temperature of the laboratory varied from 21 to 24° C. from day to day. […] The animals were then tested 30 min after administration of a subcutaneous dose of 2.5 mg/kg nicotine.

The test system is the same in experiment [3]. Put plainly: Tail-flick test, blockade of nicotine-induced antinociception. In kind it is in vivo. The settings on record: mice, pretreatment 15 min before nicotine 2.5 mg/kg s.c., tested 5 min after nicotine; for ED50: Mus musculus, 5 min, read-out: AD50 Tail-flick.
Description: as §1
Tail-Flick Test: Antinociception for pain mediated at the spinal level was assessed by the tail-flick method of D'Amour, F. E.; Smith, D. L., J. Pharmacol. Exp. Ther. 1941, 72, 74-79, incorporated herein by reference in its entirety. In brief, mice were lightly restrained while a radiant heat source was shone onto the upper portion of the tail. To minimize tissue damage, a maximum latency of 10 s was imposed. Latency to remove the tail from the heat source was recorded for each animal. […] Antinociceptive response was calculated as the percentage of maximum possible effect (% MPE), where % MPE=[(test control)/(10 control)]×100.

Experiment [4] concerns the target T1, NE transporters [h(NET)] (Homo sapiens, UniProt P23975).
T1 construct: expressed in transfected cells; host or cells: HEK-293
The experiment in a line: Inhibition of [3H]norepinephrine uptake into HEK293 cells stably expressing hNET. In kind it is cell-based. The settings on record: HEK293-hNET; mean ± standard error of three independent experiments; read-out: monoamine uptake inhibition IC50 [3H]NE. The source says: (§2) Cell Lines and Culture: Human embryonic kidney (HEK-293) cells stably expressing human DAT, NET or SERT were maintained as previously described in Eshleman, A. J.; Carmolli, M.; Cumbay, M.; Martens, C. R.; Neve, K. A.; Janowsky, A., J. Pharmacol. Exp. Ther. 1999, 289, (2), 877-885. Use was made of several human cell lines that naturally or heterologously express specific, functional, human nAChR subtypes. Cells of the TE671/RD line naturally expresses muscle-type nAChR (a1β1γδ- or α1*-nAChR), and SH-SY5Y neuroblastoma cells naturally expresses autonomic α3β4*-nAChRs (containing α3, β4, probably α5, and sometimes β2 subunits). Different clones of SH-EP1 epithelial cell lines have been engineered to heterologously express either α4β2-nAChR, which are thought to be the most abundant, high affinity nicotine-binding nAChR in mammalian brain, or α4β4-nAChR, another possible brain nAChR subtype (SH-EP1-hα4β2 or α4β4 cells, respectively). These cells were maintained as low passage number (1-26 from our frozen stocks) cultures to ensure stable expression of native or heterologously-expressed nAChR as previously described (see Lukas, R. J.; Fryer, J. D.; Eaton, J. B.; L., G. C., Some methods for studies of nicotinic acetylcholine receptor pharmacology, in Nicotinic receptors and the Nervous System, Levine, E. D., Ed. CRC Press: Boca Raton, 2002; pp 3-27, incorporated herein by reference in its entirety). Cells were passaged once weekly by splitting just-confluent cultures 1/300 (TE671/RD), 1/5 (SH-SY5Y), or 1/20 (transfected SH-EP1) in serum-supplemented medium to maintain log-phase growth.
(§3) See, for example, Damaj, M. I.; Carroll, F. I.; Eaton, J. B.; Navarro, H. A.; Blough, B. E.; Mirza, S.; Lukas, R. J.; Martin, B. R., Mol. Pharmacol. 2004, 66, (3), 675-682 and Eshleman, A. J.; Carmolli, M.; Cumbay, M.; Martens, C. R.; Neve, K. A.; Janowsky, A., J. Pharmacol. Exp. Ther. 1999, 289, (2), 877-885, both incorporated by reference herein in their entireties.

Experiment [5] concerns the target T2, α4β2-nAChR (Homo sapiens, UniProt P17787+P43681).
T2 construct: expressed in transfected cells; host or cells: SH-EP1 epithelial cells (SH-EP1-hα4β2)
The experiment in a line: 86Rb+ efflux nAChR functional assay, SH-EP1-hα4β2 cells. In kind it is cell-based. The settings on record: EC80-EC90 carbamylcholine; SH-EP1-hα4β2; parentheses = S.E.M. as multiplication/division factor; read-out: nAChR inhibition IC50 α4β2.
Description: as §2
(§4) After cells had adhered (generally overnight, but no sooner than 4 h later), the medium was removed and replaced with 250 μL per well of complete medium supplemented with ˜350,000 cpm of ^86Rb^+ (PerkinElmer Life and Analytical Sciences, Boston, Mass.) and counted at 40% efficiency using Cerenkov counting (TriCarb 1900 liquid scintillation analyzer[…]; PerkinElmer Life Sciences).
(§5) After at least 4 h and typically overnight, ^86Rb^+ efflux was measured using the “flip-plate” technique. See Lukas, R. J.; Fryer, J. D.; Eaton, J. B.; L., G. C., Some methods for studies of nicotinic acetylcholine receptor pharmacology, in Nicotinic receptors and the Nervous System, Levine, E. D., Ed. CRC Press: Boca Raton, 2002; pp 3-27, incorporated herein by reference in its entirety). Briefly, after aspiration of the bulk of ^86Rb^+ loading medium from each well of the “cell plate,” each well containing cells was rinsed 3× with 2 mL of fresh ^86Rb^+ efflux buffer (130 mM NaCl, 5.4 mM KCl, 2 mM CaCl2, 5 mM glucose, 50 mM HEPES, pH 7.4) to remove extracellular ^86Rb^+. Following removal of residual rinse buffer by aspiration, the flip-plate technique was used again to simultaneously introduce 1.5 mL of fresh efflux buffer containing drugs of choice at indicated final concentrations from a 24-well “efflux/drug plate” into the wells of the cell plate. After a 5 min incubation, the solution was “flipped” back into the efflux/drug plate, and any remaining buffer in the cell plate was removed by aspiration. Cells remaining in the cell plate were lysed and suspended by addition of 1.5 mL of 0.1 M NaOH, 0.1% sodium dodecyl sulfate to each well.
(§6) Similarly, the sum of ^86Rb^+ in cell plates and efflux/drug plates also determined the efficiency of ^86Rb^+ loading (the percentage of applied ^86Rb^+ actually loaded into cells).
(§7) Specific efflux was then taken as the difference in control samples between total and non-specific ^86Rb^+ efflux. Any intrinsic agonist activity of test drugs was ascertained using samples containing test drug only at different concentrations and was normalized, after subtraction of non-specific efflux, to specific efflux in test drug-free, control samples.

Experiment [6] concerns the target T3, 5HT transporters [(h)SERT] (Homo sapiens, UniProt P31645).
T3 construct: expressed in transfected cells; host or cells: HEK-293
Put plainly: Inhibition of [3H]serotonin uptake into HEK293 cells stably expressing hSERT. The experiment is classed as cell-based.
Description: as §2, §3

The target in experiment [7] is T4, human DA transporters [(h)DAT] (Homo sapiens, UniProt Q01959).
T4 construct: expressed in transfected cells; host or cells: HEK-293
T4 sequence (Q01959 whole entry): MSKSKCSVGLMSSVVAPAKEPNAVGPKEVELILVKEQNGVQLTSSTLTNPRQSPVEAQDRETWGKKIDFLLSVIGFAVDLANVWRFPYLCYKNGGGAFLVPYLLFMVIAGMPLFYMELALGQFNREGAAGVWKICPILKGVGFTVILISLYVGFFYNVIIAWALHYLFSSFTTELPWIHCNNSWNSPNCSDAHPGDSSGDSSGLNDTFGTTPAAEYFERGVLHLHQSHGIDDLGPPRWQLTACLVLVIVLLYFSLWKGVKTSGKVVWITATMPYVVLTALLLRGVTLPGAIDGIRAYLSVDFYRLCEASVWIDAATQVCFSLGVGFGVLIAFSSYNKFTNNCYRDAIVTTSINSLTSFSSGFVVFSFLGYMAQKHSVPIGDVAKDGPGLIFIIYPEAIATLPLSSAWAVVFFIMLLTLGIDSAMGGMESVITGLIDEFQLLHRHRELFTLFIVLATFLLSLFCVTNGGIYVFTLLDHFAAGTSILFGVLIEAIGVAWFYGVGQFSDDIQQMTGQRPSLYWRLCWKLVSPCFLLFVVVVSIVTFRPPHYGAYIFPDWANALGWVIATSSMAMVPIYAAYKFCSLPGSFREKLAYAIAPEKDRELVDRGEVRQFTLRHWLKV
Put plainly: Inhibition of [3H]dopamine uptake into HEK293 cells stably expressing hDAT. In kind it is cell-based.
Description: as §2, §3

Experiment [8] addresses T5, muscle-type nAChR (α1β1γδ- or α1*-nAChR) (Homo sapiens, UniProt P02708+P07510+P11230+Q07001).
T5 construct: Cells of the TE671/RD line naturally expresses muscle-type nAChR; endogenous in cells; host or cells: TE671/RD cells
Put plainly: 86Rb+ efflux nAChR functional assay, TE671/RD cells. The settings on record: nAChR inhibition IC50 α1*β1, EC80-EC90 carbamylcholine, parentheses = S.E.M. as multiplication/division factor. The experiment is classed as cell-based.
Description: as §2, §4, §5, §6, §7

Experiment [9] concerns the target T6, α4β4-nAChR (Homo sapiens, UniProt P30926+P43681).
T6 construct: expressed in transfected cells; host or cells: SH-EP1 epithelial cells (SH-EP1-hα4β4)
The experiment in a line: 86Rb+ efflux nAChR functional assay, SH-EP1-hα4β4 cells. In kind it is cell-based. To be noted: EC80-EC90 carbamylcholine, parentheses = S.E.M. as multiplication/division factor, read-out: nAChR inhibition IC50 α4β4.
Description: as §2, §4, §5, §6, §7

Experiment [10] relates to Male Institute of Cancer Research (ICR) mice. Put plainly: Locomotor activity, antagonism of nicotine effect. The experiment is classed as in vivo. To be noted: for AD50 Locomotion: pretreatment 15 min before nicotine […] s.c.
Description: as §1
Locomotor Activity: Mice were placed into individual Omnitech photocell activity cages (28×16.5 cm; Omnitech Electronics, Columbus, Ohio) 5 min after subcutaneous administration of either 0.9% saline or nicotine (1.5 mg/kg). Interruptions of the photocell beams (two banks of eight cells each) were then recorded for the next 10 min. Data were expressed as the number of photocell interruptions.

T5 sequence (P02708 21-457): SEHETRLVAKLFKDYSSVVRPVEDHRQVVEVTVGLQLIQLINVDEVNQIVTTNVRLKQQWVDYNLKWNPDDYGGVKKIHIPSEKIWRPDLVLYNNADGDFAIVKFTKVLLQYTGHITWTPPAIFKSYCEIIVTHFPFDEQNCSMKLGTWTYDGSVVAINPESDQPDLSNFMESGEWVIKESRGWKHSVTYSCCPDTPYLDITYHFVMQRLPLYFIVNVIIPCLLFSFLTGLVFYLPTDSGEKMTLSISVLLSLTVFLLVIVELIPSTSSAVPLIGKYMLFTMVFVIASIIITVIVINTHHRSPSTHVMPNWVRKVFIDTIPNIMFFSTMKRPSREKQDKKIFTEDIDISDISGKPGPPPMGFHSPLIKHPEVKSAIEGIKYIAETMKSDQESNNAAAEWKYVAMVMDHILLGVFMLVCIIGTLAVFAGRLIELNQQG
T5 sequence (P11230 24-501): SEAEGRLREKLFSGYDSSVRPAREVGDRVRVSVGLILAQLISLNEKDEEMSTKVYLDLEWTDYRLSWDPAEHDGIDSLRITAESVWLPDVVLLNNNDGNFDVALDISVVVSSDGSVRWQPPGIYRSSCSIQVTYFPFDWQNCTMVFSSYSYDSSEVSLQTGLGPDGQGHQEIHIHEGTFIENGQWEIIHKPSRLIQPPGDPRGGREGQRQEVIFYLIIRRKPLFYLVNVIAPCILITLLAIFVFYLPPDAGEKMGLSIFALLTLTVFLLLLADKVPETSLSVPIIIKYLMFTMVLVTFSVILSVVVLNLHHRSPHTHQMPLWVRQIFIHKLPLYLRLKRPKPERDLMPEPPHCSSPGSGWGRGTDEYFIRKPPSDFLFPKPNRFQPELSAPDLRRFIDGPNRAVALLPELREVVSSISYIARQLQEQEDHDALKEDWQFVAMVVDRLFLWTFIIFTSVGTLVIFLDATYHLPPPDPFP
T5 sequence (P07510 23-517): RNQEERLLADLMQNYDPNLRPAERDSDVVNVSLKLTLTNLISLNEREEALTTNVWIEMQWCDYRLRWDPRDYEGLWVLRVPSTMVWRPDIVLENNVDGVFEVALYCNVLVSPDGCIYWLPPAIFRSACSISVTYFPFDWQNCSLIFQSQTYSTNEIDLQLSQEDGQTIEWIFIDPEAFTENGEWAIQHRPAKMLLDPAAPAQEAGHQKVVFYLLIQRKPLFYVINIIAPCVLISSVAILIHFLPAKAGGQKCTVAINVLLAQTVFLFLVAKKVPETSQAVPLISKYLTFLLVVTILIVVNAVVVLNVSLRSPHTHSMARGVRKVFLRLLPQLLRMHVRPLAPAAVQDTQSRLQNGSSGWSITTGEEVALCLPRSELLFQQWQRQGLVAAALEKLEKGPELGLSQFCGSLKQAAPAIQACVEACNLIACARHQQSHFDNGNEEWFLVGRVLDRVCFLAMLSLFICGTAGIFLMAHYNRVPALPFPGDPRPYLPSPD
T5 sequence (Q07001 22-517): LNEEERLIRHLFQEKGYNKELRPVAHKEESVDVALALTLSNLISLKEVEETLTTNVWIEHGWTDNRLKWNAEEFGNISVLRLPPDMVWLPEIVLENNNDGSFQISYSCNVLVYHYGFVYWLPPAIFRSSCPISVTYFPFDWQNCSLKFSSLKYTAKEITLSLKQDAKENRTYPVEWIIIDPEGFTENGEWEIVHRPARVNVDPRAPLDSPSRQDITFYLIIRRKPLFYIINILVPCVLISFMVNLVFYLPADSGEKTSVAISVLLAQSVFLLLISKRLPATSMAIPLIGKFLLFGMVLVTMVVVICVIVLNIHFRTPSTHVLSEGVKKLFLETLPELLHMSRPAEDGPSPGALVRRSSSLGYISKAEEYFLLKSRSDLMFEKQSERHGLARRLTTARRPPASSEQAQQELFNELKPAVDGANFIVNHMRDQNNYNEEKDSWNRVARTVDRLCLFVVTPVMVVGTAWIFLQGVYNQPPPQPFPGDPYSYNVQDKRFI
T1 sequence (P23975 whole entry): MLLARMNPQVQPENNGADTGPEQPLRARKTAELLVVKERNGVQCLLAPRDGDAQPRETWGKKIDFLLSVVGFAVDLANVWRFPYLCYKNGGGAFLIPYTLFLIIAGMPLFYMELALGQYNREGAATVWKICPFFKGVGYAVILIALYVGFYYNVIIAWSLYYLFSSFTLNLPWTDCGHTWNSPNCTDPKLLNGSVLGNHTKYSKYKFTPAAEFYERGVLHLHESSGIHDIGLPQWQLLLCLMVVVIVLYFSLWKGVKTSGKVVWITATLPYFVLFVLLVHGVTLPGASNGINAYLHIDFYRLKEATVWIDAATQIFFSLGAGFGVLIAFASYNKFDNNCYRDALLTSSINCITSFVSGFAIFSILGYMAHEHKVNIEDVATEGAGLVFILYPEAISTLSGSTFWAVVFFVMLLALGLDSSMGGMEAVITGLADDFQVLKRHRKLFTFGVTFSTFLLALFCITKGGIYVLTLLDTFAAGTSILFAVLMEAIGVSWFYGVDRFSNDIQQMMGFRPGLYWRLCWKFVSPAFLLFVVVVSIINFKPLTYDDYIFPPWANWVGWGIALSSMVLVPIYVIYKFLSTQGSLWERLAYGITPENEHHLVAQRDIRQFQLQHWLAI
T3 sequence (P31645 whole entry): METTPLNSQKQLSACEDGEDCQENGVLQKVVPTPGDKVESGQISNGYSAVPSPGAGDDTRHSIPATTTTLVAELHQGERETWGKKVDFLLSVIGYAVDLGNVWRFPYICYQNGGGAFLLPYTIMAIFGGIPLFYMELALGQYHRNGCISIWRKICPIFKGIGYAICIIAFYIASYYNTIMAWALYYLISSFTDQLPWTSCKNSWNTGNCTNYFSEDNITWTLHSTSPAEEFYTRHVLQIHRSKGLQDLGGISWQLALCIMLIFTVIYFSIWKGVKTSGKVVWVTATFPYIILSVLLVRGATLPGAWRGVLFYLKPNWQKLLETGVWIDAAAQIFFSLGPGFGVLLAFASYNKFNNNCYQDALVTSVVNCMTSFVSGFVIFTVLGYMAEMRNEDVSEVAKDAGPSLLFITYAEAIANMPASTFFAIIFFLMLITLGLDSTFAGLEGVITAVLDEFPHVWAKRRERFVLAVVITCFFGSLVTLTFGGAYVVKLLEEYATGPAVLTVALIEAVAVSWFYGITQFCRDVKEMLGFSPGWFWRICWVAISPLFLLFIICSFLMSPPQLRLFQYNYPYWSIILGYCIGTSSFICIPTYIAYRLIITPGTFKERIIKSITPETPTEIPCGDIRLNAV
T2 sequence (P43681 29-627 limits assumed): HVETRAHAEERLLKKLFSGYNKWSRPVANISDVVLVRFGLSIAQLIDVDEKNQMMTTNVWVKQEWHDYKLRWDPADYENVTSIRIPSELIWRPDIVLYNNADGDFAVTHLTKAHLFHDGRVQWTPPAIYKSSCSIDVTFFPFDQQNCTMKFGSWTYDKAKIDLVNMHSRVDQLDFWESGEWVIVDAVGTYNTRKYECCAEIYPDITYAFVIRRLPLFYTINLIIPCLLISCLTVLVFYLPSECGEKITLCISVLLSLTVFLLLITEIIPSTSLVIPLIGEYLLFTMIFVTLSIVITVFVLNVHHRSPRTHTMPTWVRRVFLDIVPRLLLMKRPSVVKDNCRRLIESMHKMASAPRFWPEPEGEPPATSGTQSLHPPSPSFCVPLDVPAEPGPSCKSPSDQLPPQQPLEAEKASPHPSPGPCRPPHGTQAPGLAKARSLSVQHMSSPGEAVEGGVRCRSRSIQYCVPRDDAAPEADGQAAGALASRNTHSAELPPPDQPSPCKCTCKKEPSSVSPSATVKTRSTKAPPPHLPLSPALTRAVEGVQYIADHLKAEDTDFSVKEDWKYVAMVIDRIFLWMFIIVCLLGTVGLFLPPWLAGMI
T2 sequence (P17787 26-502): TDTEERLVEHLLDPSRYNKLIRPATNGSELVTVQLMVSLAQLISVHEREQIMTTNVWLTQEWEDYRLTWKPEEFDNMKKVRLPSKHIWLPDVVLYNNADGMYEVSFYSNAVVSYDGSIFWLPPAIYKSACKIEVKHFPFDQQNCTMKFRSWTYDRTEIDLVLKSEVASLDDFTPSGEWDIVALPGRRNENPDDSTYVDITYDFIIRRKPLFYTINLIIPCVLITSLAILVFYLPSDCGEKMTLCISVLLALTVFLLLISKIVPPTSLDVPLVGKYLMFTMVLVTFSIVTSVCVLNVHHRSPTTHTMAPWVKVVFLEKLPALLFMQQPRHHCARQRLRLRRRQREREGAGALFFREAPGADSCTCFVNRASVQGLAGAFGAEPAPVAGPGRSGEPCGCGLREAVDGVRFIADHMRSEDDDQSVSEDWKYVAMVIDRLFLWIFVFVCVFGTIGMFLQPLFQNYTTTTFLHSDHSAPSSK

For the molecule `CC(NC(C)(C)C)C(=O)c1cccc(Cl)c1` (racemic) [Compound 2, (±)-2-tert-butylamino-3′-chloropropiophenone, reference compound], in experiment [1], the ED50 came out at 15 mg/kg and the “AD50 Hot-plate” value worked out at 15 mg/kg. Moreover, in experiment [2] (Mus musculus, 0.5 h, read-out: AD50 Hypothermia), the ED50 stood at 9.2 mg/kg. Besides, the “AD50 Hypothermia” value in experiment [2] was determined as 9.2 mg/kg. In experiment [3], the ED50 was determined as 1.2 mg/kg and the “AD50 Tail-flick” value is 1.2 mg/kg.

For orientation: IC50 means the point on the concentration scale where inhibition reaches its midpoint. Take `CC1NC(C)(C)COC1(O)c1cccnc1` (racemic) [Compound 5, 3,5,5-Trimethyl-2-(pyridin-3-yl)morpholin-2-ol]: the half-inhibitory concentration (IC50) in [4] was greater than 10 µM; in experiment [5] it was greater than 100 µM; in experiment [6] it was greater than 10 µM; in [7] (HEK293-hDAT, mean ± standard error of three independent experiments, read-out: monoamine uptake inhibition IC50 [3H]DA), greater than 10 µM; in experiment [8], greater than 100 µM; in experiment [9], greater than 100 µM.

As for `CC1NC(C)(C)COC1(O)c1ccccn1` (racemic) [Compound 6, 3,5,5-Trimethyl-2-(pyridin-2-yl)morpholin-2-ol], the IC50 in [4] was 7.95 ± 1.8 µM; in [5], greater than 100 µM; in [6] (HEK293-hSERT, mean ± standard error of three independent experiments, read-out: monoamine uptake inhibition IC50 [3H]5HT) it was greater than 10 µM; in experiment [7] it was greater than 10 µM; in experiment [8], greater than 100 µM; in [9], greater than 100 µM.

As to `CCC[C@@H]1NC(C)(C)CO[C@@]1(O)c1cccc(Cl)c1` [Compound 4t, (2S,3S)-2-(3-Chlorophenyl)-5,5-dimethyl-3-propyl-morpholin-2-ol], the “AD50 Locomotion” value in [10] is 4.7 mg/kg. The “AD50 Hot-plate” value in [1] was “IA (IA: AD50 > 15 mg/kg)”. Besides, the “AD50 Hypothermia” value in [2] is listed as “IA (IA: AD50 > 15 mg/kg)”. Also, in experiment [3], the ED50 was determined as 0.004 mg/kg.

With `C[C@H]1NC(C)(C)CO[C@]1(O)c1cccc(Cl)c1` [Compound (2R,3R)-4a, (2R,3R)-2-(3-Chlorophenyl)-3,5,5-trimethylmorpholin-2-ol, reference compound], the “AD50 Locomotion” value in experiment [10] is “IA (IA: AD50 > 15 mg/kg)”. Further, the ED50 in experiment [1] was found to be 10.3 mg/kg; in experiment [3] it was 2.5 mg/kg. Besides, in [2], the “AD50 Hypothermia” value is recorded as “IA (IA: AD50 > 15 mg/kg)”.

Regarding `C[C@@H]1NC(C)(C)CO[C@@]1(O)c1cccc(Cl)c1` [Compound (2S,3S)-4a, (2S,3S)-2-(3-Chlorophenyl)-3,5,5-trimethylmorpholin-2-ol, reference compound], the ED50 in experiment [10] (Mus musculus, pretreatment 15 min before nicotine 1.5 mg/kg s.c., read-out: AD50 Locomotion) came out at 0.9 mg/kg; in [1], 1 mg/kg; in experiment [3], 0.2 mg/kg. Besides, the “AD50 Locomotion” value in [10] is 0.9 mg/kg. In addition, the “AD50 Hot-plate” value in experiment [1] worked out at 1 mg/kg.
